Source: patent US8552052B2, “Use of diindolylmethane-related indoles for the treatment and prevention of respiratory syncytial virus associated conditions” (BioResponse, L.L.C., priority 2004, dated 2013)
Entries after “also recorded” stand apart in the source; their conditions may differ.

How the values were obtained:
[1] = system: RSV infected A549 pulmonary epithelial cells; assay: Phosphohistone (H2A.X Phosphorylation) assay of apoptosis in RSV infected A549 cells; type: cell-based, human; details: 18 hour treatment, FIG. 1
Experimental: (§1) Cell Culture—A549 cells, a tumor cell line with properties of normal airway epithelial cells, were obtained from American Type Culture Collection (ATCC, Manassas, Va.) and incubated at 37° C. in 5% CO2. The cells were cultured in Eagle's minimum essential medium (MEM, Invitrogen) supplemented with 10% fetal bovine serum (HyClone, Logan, Utah) and […] gentamicin. The A549 cells were subcultured by harvesting in 0.12% trypsin no more than 20 times from stock originally designated at pass 70. To minimize effects of exogenous growth factors or cytokines in this system, the supplemented serum concentration was reduced to 0.5% 24 h prior to and during all experiments with RSV infection.
(§2) RSV Virus—RSV, strain A2, was obtained from Advanced Biotechnologies Inc. (Columbia, Md.) and was used directly as supplied for all experiments. The viral preparation was tested to have a TCID50 titer of ˜1×10^9 in Hep-2 cells at 7 days. […]
Cell Viability and Death Assays—Induction of Apoptosis by DIM in RSV infected A549 cell was measured according to a Phosphohistone Assay. […] The detection was done by LumiGLO™ chemiluminescent substrate and the plate was read in a microplate luminometer after 10-20 min. Luminescence indicated the extent of apoptosis in the sample examined.

RSV infected A549 cells = assay: TUNEL assay for visualization of apoptosis in RSV infected A549 cells; type: cell-based, human; details: DIM at 210 and 700 nM; 12, 18, and 24 hours post infection; data not shown
Experimental: as §1
as §2, with “days. Sterile vials of the RSV preparation were supplied in MEM supplemented with 10% fetal calf serum, stored at −135° C. and rapidly thawed at 37° C. immediately prior to use.” for “days.”
Apotosis in RSV infected A549 cells cultured with and without DIM was further studied using the TUNEL assay for visualization of apoptosis. […] To remove unincorporated dUTP, slides were washed three times 15 min each with 2×SSC and three times with PBS, and then viewed in a fluorescence microscope. […]

Caspase-3 = Caspase-3 activation in RSV infected A549 cell culture; type: cell-based, human; details: RSV infected A549 cells; DIM 70, 210, and 700 nM
[2] = system: Human Papilloma Virus (HPV) oncogene altered cervical cancer cell lines; details: cited from earlier work
[3] = system: prostate cancer cell lines; details: cited from earlier work

Question: With `c1ccc2c(Cc3c[nH]c4ccccc34)c[nH]c2c1` [DIM, 3,3′-diindolylmethane] as the compound, how does the cells undergoing apoptosis ([1]; DIM 70, 210, 700 nM, LY294002 2 and 5 μM) read?
Answer: Its cells undergoing apoptosis is “accelerated apopotosis in RSV infected cells; also recorded: significant, dose-related increase in cells undergoing apoptosis”.

Question: What about the “Promotion of apoptosis by DIM compared with LY294002” value ([1]; nM DIM) of the same compound?
Answer: Its value is “more potent than that seen with LY294002”.

Question: And the “apoptosis in TUNEL stained photomicrographs” value (RSV infected A549 cells)?
Answer: Its value is “clearly showed earlier apoptosis”.

Question: What about the “time of culture at which apoptosis specific Caspase-3 is activated” value (Caspase-3) of the same compound?
Answer: Its value is “less than 12 hrs”.

Question: And the induction of apoptosis ([2]; HPV oncogene altered cervical cancer cell lines)?
Answer: Its induction of apoptosis is “specifically induce apoptosis”.

Question: And the “induction of markers of apoptosis compared with I3C” value ([2]; cell culture)?
Answer: Its value is “more active than I3C”.

Question: What about the anti-androgen activity [3] of the same compound?
Answer: Its anti-androgen activity is “anti-androgen activity similar to non-indole antiandrogen drugs”.
